# In patent US20250230193A1, “CYCLIC COMPOUND HAVING SELECTIVE KRAS INHIBITORY EFFECT ON HRAS AND NRAS” (CHUGAI SEIYAKU KABUSHIKI KAISHA, priority 2022, published 2025):
# Where a SMILES comes first, the peptide text is derived from it. Bridges are numbered along the chain shown (N, C = ends). [ ]: non-standard residue; d: D form. The star is where a group is joined. hPhe(3-Cl-4-CF3) = N[C@@H](CCc1ccc(C(F)(F)F)c(Cl)c1)C(=O)O; NPrPhe(4-CF3) = CCCN[C@@H](Cc1ccc(C(F)(F)F)cc1)C(=O)O; NMePhe(4-Me) = CN[C@@H](Cc1ccc(C)cc1)C(=O)O; NMeGly(cPent) = CN[C@H](C(=O)O)C1CCCC1; Hyp = O=C(O)[C@@H]1C[C@@H](O)CN1; NMeD = CN[C@@H](CC(=O)O)C(=O)O; NMeL = CN[C@@H](CC(C)C)C(=O)O; Morpholide = C1CN(*)CCO1; Ac5c = NC1(C(=O)O)CCCC1; NEtG = CCNCC(=O)O; Sar = CNCC(=O)O
# How the values were obtained:
# [1] = target: GDP-bound HRAS wild-type protein (Homo sapiens, UniProt P01112); experiment: Binding to HRAS by surface plasmon resonance (SPR), Single Cycle Kinetics
# GDP-bound HRAS wild-type protein, sequence (P01112 whole entry): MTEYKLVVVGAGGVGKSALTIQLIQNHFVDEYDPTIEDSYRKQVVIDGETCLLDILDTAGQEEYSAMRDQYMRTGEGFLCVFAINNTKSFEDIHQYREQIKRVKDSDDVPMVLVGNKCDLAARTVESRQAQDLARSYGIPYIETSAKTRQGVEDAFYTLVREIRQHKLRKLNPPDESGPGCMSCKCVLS
# [2] = target: GDP-bound NRAS wild-type protein (Homo sapiens, UniProt P01111); experiment: Binding to NRAS by surface plasmon resonance (SPR), Single Cycle Kinetics
# GDP-bound NRAS wild-type protein, sequence (P01111 whole entry): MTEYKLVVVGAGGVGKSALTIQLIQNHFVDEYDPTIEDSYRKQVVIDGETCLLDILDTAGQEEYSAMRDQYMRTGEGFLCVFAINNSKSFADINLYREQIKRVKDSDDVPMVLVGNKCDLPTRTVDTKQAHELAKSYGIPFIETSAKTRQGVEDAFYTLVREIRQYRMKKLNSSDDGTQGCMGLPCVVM
# [3] = KD ratio, GDP-bound HRAS wild-type vs GDP-bound KRAS wild-type, SPR
# [4] = KD ratio, GDP-bound NRAS wild-type vs GDP-bound KRAS wild-type, SPR
# [5] = SPR, GDP-bound wild-type proteins
smiles,measurement,setting,value
CCCN(C)C(=O)[C@@H]1CC(=O)N(C)[C@@H](CC)C(=O)N[C@@H]([C@@H](C)CC)C(=O)N(C)CC(=O)N(C)[C@H]2C/C=C\CCN(C2=O)[C@@H](Cc2ccc(C(F)(F)F)cc2)C(=O)N(C)CC(=O)N[C@@H](CCc2cc(F)c(C(F)(F)F)c(F)c2)C(=O)N2C[C@H](OCC)C[C@H]2C(=O)NC2(CC(F)(F)C2)C(=O)N(C)[C@@H](C2CCCC2)C(=O)N1C [PP1732],HRAS/KRAS (ratio of KD value for HRAS to KD value for KRAS),[1]; [3],A (a compound having 10 or more and less than 20 is denoted as A)
same,NRAS/KRAS (ratio of KD value for NRAS to KD value for KRAS),[2]; [4],AA (a compound having 20 or more is denoted as AA)
CCO[C@@H]1C[C@H]2C(=O)NC3(CCC3)C(=O)N(C)[C@@H](C3CCCC3)C(=O)N(C)[C@H](C(=O)N3CCCC3)CC(=O)N(C)[C@@H](CC)C(=O)N[C@@H]([C@@H](C)CC)C(=O)N(C)CC(=O)N(C)[C@H]3C/C=C\CCN(C3=O)[C@@H](Cc3ccc(C(F)(F)F)cc3)C(=O)N(C)CC(=O)N[C@@H](CCc3cc(F)c(C(F)(F)F)c(F)c3)C(=O)N2C1 [PP1090],HRAS/KRAS (ratio of KD value with respect to HRAS to KD value with respect to KRAS),[1]; [3],A (a compound having 10 or more and less than 20 is denoted as A)
same,NRAS/KRAS (ratio of KD value with respect to NRAS to KD value with respect to KRAS),[2]; [4],AA (a compound having 20 or more is denoted as AA)
CCC[C@H]1C(=O)N[C@@H]([C@@H](C)CC)C(=O)N(C2CC2)CC(=O)N(C)[C@H]2C/C=C\CCN(C2=O)[C@@H](Cc2ccc(C)cc2)C(=O)N(C)CC(=O)N[C@@H](CCc2cc(F)c(C(F)(F)F)c(F)c2)C(=O)N2C[C@H](OCC)C[C@H]2C(=O)NC2(CC(C)(C)C2)C(=O)N(C)[C@@H](CC(C)(C)C)C(=O)N(C)[C@H](C(=O)N(C)C)CC(=O)N1C [PP2718],HRAS/KRAS (ratio of KD value with respect to GDP-bound HRAS wild-type protein to KD value with respect to KRAS),[1]; class symbols,A (a compound having 10 or more and less than 20 is denoted as A)
same,NRAS/KRAS (ratio of KD value with respect to GDP-bound NRAS wild-type protein to KD value with respect to KRAS),[2]; class symbols,A (a compound having 10 or more and less than 20 is denoted as A)
CC[C@H](C)[C@@H]1NC(=O)[C@H](CCOC)N(C)C(=O)C[C@@H](C(=O)N(C)CC)N(C)C(=O)[C@H](C2CCCC2)N(C)C(=O)C2(CC(C)(C)C2)NC(=O)[C@@H]2C[C@H](C)CN2C(=O)[C@H](CCc2cc(F)c(C(F)(F)F)c(F)c2)NC(=O)CN(C)C(=O)[C@H](Cc2ccc(C(F)(F)F)cc2)N2CC/C=C\C[C@@H](C2=O)N(C)C(=O)CN(C)C1=O [PP1972],HRAS/KRAS (ratio of KD value for HRAS to KD value for KRAS),[1]; [3],A (a compound having 10 or more and less than 20 is denoted as A)
same,NRAS/KRAS (ratio of KD value for NRAS to KD value for KRAS),[2]; [4],A (a compound having 10 or more and less than 20 is denoted as A)
CCC[C@H]1C(=O)N[C@@H](C2CCCC2)C(=O)N(C)CC(=O)N(C)[C@H]2C/C=C\CCN(C2=O)[C@@H](Cc2ccc(C)cc2)C(=O)N(C)CC(=O)N[C@@H](CCc2ccc(C(F)(F)F)c(OC)c2)C(=O)N2C[C@H](OCC)C[C@H]2C(=O)NC2(CC(C)(C)C2)C(=O)N(C)[C@@H](CC(C)(C)C)C(=O)N(C)[C@H](C(=O)N(C)C)CC(=O)N1C [PP3005],HRAS/KRAS (ratio of KD value with respect to GDP-bound HRAS wild-type protein to KD value with respect to KRAS),[1]; [5],B (a compound having 3 or more and less than 10 is denoted as B)
same,NRAS/KRAS (ratio of KD value with respect to GDP-bound NRAS wild-type protein to KD value with respect to KRAS),[2]; [5],A (a compound having 10 or more and less than 20 is denoted as A)
CC[C@H](C)[C@@H]1NC(=O)[C@H](CC(C)C)N(C)C(=O)C[C@@H](C(=O)N2CCOCC2)N(C)C(=O)[C@H](C2CCCC2)N(C)C(=O)C2(CCCC2)NC(=O)[C@@H]2CCCN2C(=O)[C@H](CCc2ccc(C(F)(F)F)c(Cl)c2)NC(=O)CN(C)C(=O)[C@H](Cc2ccc(C)cc2)N(C)C(=O)CN(C)C(=O)CN(C)C1=O [PP0018] ([NMeL]I[Sar][Sar][NMePhe(4-Me)][Sar][hPhe(3-Cl-4-CF3)]P[Ac5c][NMeGly(cPent)][NMeD]-Morpholide; lactam N-11),HRAS/KRAS (ratio of KD for GDP-bound HRAS wild-type to KD for KRAS),[1]; SPR,C (A compound having a KD ratio of 0.1 or more and less than 3 is denoted as C)
same,NRAS/KRAS (ratio of KD for GDP-bound NRAS wild-type to KD for KRAS),[2]; SPR,C (A compound having a KD ratio of 0.1 or more and less than 3 is denoted as C)
CCCN1C(=O)CN(C)C(=O)CN(CC)C(=O)[C@H]([C@@H](C)CC)NC(=O)[C@H](CC(C)C)N(C)C(=O)C[C@@H](C(=O)N2CCOCC2)N(C)C(=O)[C@H](C2CCCC2)N(C)C(=O)C2(CCCC2)NC(=O)[C@@H]2C[C@@H](OC)CN2C(=O)[C@H](CCc2ccc(C(F)(F)F)c(Cl)c2)NC(=O)CN(C)C(=O)[C@@H]1Cc1ccc(C(F)(F)F)cc1 [PP0296] ([NMeL]I[NEtG][Sar][NPrPhe(4-CF3)][Sar][hPhe(3-Cl-4-CF3)][Hyp](Me)[Ac5c][NMeGly(cPent)][NMeD]-Morpholide; lactam N-11),HRAS/KRAS (ratio of KD for GDP-bound HRAS wild-type to KD for KRAS),[1]; SPR,C (A compound having a KD ratio of 0.1 or more and less than 3 is denoted as C)
same,NRAS/KRAS (ratio of KD for GDP-bound NRAS wild-type to KD for KRAS),[2]; SPR,B (a compound having 3 or more and less than 10 is denoted as B)
